Experimental data from publication PMC11758221, “Late-Stage Minimal Labeling of Peptides and Proteins for Real-Time Imaging of Cellular Trafficking” (ACS Central Science, 2024).
Like-named read-outs stand apart in the source and are kept apart here. Values belong to the compound of their own block, whether it stands above or below them. Where a SMILES comes first, the peptide text is derived from it. Where no end group is shown, it is not given here. The star is where a group is joined. X1 = O=[N+]([O-])c1ccc(*)c2nsnc12

Assays:
[1] = tested on: RAW264.7 macrophages expressing the chemokine receptor CCR2; experiment: Confocal imaging of receptor-mediated endocytosis of the labeled chemokine; type: cell-based, mouse; conditions: RAW264.7 cells, 4 μM, 1 h
Text: Figure 6 Site-selective mCCL2 chemokine labeling and real-time imaging of receptor-mediated endocytosis in live macrophages. A) Schematic representation of the chemokine mCCL2 (PDB: 1DOK) depicting the incorporation of SNBD at the C-terminal end. B) Coomassie-stained and in-gel fluorescence scanning of unlabeled mCCL2, mCCL2-SNBD, and the Pd-SNBD complex. C) Mass spectrometry analysis of unlabeled mCCL2 and mCCL2-SNBD proteins. D) Representative fluorescence confocal microscopy images of RAW264.7 cells after incubation with mCCL2-SNBD for 1 h. Left panel: untreated cells; middle panel: cells treated with mCCL2-SNBD (4 μM); right panel: cells treated with mCCL2-SNBD (4 μM) and the CCR2 antagonist RS102895 (40 μM) (exc/em: 405/515 nm). Insets show the corresponding brightfield images. Scale bars: 25 μm. […]
Next, we acquired fluorescence microscopy images in live RAW264.7 macrophages as a murine macrophage cell line expressing the chemokine receptor CCR2.[64] We incubated the macrophages with mCCL2-SNBD, and fluorescence images were taken after 1 hour without any washing steps. […]
[…] Th e si gn al s w ere recorded as mi l l i degrees at 25 °C , an d th e mean resi du e el l i pti ci ty (MR E ) w as cal cu l ated accordi n g to [θ] […]

[2] = tested on: Human red blood cells; experiment: Haemolysis assay; type: cell-based
Description: H aemolysis assays. […] H u man red bl ood cel l s w ere separated f rom seru m an d w ash ed i n ph osph ate- bu ff ered sal i n e (P B S , pH 7.4) with 4–5 ti mes cen tri f u gati on at 4000 rpm f o r 1 mi n . E ryth rocytes w ere th en resu spended in PBS as a 0.5% (v/v) sol u ti on , an d co- i n cu bated w i th seri al l y di l u ted pepti des i n a 96-w el l pl ate f o r 1 h at 37 °C . […] PBS and […]
0 .0 1 % (v /v ) Tri to n X-100 w ere u sed as con trol s to establ i sh 0% an d 100% of h aemol ysis, respecti vel y. […]

[3] = Chemical stability in PBS, cell culture media and reducing environments; type: physicochemical
Description: Next, we investigated the optical properties and stability of the S-aryl linkage in the two labeled peptides P1-SNBD and cP1-SNBD. We examined their chemical stability after incubation in phosphate buffered saline (PBS, pH 7.0) at 25 °C and cell culture media at 37 °C (Figures S6 and S7) as well as different biologically relevant reducing environments (Figure S8). […] Finally, we measured the emission spectra of P1-SNBD and cP1-SNBD and confirmed that the two peptides retained the fluorogenic behavior of benzodiazoles (Figure S9).

[4] = Stability of labeled peptide with reducing bioanalytes (HPLC); type: physicochemical; conditions: peptide 250 µM in PBS pH 7.8, 37 °C
Description: 5 mM gl u tath i on e >95% >95% >95%
Figure S8. Stability analysis of P1-SNBD under physiological conditions. […]

[5] = red cells of human, 1 h, pH 7.4
[6] = human red blood cells 0.5% (v/v) in PBS pH 7.4, 1 h at 37 °C, haemoglobin absorbance 405 nm, 0.01% Triton X-100 = 100%, Hill fit with maximum constrained to 100%, read-out: hemolytic activity EC50

Compound: mCCL2-SNBD: mCCL2 labeled with SNBD at the C-terminal Cys, 9063.6 Da
internalization in presence of CCR2 antagonist ([1]; RS102895 40 μM pre-incubated 15 min): substantially reduced intracellular fluorescence emission | internalization in live macrophages ([1]; no washing steps): bright fluorescence signals distributed across the cytosol

Compound: CC[C@H](C)[C@H](NC(=O)[C@H](CCCCN)NC(=O)[C@H](CC(N)=O)NC(=O)[C@H](CCCNC(=N)N)NC(=O)[C@H](Cc1ccccc1)NC(=O)[C@H](CCCCN)NC(=O)[C@H](CCCNC(=N)N)NC(=O)[C@H](CC(C)C)NC(=O)[C@H](CCCNC(=N)N)NC(=O)[C@H](CCCCN)NC(=O)[C@H](CCCNC(=N)N)NC(=O)[C@H](CC(C)C)NC(=O)CN)C(=O)N[C@@H](CCCCN)C(=O)N[C@@H](CCC(=O)O)C(=O)N[C@@H](CCCCN)C(=O)N[C@@H](CSc1ccc([N+](=O)[O-])c2nsnc12)C(N)=O [sC18-SNBD] (H-GLRKRLRKFRNKIKEKC(X1)-NH2)
EC50 [2, 5]: 43 ± 3 µM

Compound: CC[C@H](C)[C@H](NC(=O)[C@H](CCCCN)NC(=O)[C@@H](NC(=O)[C@H](CCC(N)=O)NC(=O)[C@@H](N)CCCNC(=N)N)[C@@H](C)CC)C(=O)N[C@@H](Cc1c[nH]c2ccccc12)C(=O)N[C@@H](Cc1ccccc1)C(=O)N[C@@H](CCC(N)=O)C(=O)N[C@@H](CC(N)=O)C(=O)N[C@@H](CCCNC(=N)N)C(=O)N[C@@H](CCCNC(=N)N)C(=O)N[C@@H](CCSC)C(=O)N[C@@H](CCCCN)C(=O)N[C@@H](Cc1c[nH]c2ccccc12)C(=O)N[C@@H](CCCCN)C(=O)N[C@@H](CCCCN)C(N)=O [penetratin, reference compound]
EC50 [2, 6]: 34 ± 5 µM

chemical stability ([3]; cell culture media at 37 °C): no major degradation | chemical stability ([3]; different biologically relevant reducing environments): no major degradation | chemical stability ([3]; phosphate buffered saline (PBS, pH 7.0) at 25 °C): no major degradation | Peptide stability, percentage relative to peptide without bioanalyte ([4]; 1 mM NADH, 3 h): > 95% | Peptide stability, percentage relative to peptide without bioanalyte ([4]; 1 mM NADH, 24 h): > 95% | Peptide stability, percentage relative to peptide without bioanalyte ([4]; 1 mM NADH, 48 h): > 95% | Peptide stability, percentage relative to peptide without bioanalyte ([4]; 5 mM glutathione, 3 h): > 95% | Peptide stability, percentage relative to peptide without bioanalyte ([4]; 5 mM glutathione, 24 h): > 95% | Peptide stability, percentage relative to peptide without bioanalyte ([4]; 5 mM glutathione, 48 h): > 95%
Compound: CC(C)C[C@H](NC(=O)[C@H](Cc1ccc(O)cc1)NC(=O)[C@H](CCCNC(=N)N)NC(=O)[C@H](CO)NC(=O)[C@H](CSc1ccc([N+](=O)[O-])c2nsnc12)NC(=O)[C@H](C)NC(=O)[C@H](Cc1ccc(O)cc1)NC(=O)[C@H](CC(C)C)NC(=O)[C@@H](N)CCCCN)C(N)=O [P1-SNBD] (H-KLYAC(X1)SRYL-NH2)

Compound: N=C(N)NCCC[C@H](NC(=O)CNC(=O)[C@@H](N)Cc1ccc(O)cc1)C(=O)N[C@@H](CCCCN)C(=O)N[C@@H](CCCCN)C(=O)N[C@@H](CCCNC(=N)N)C(=O)N[C@@H](CCCNC(=N)N)C(=O)N[C@@H](CCC(N)=O)C(=O)N[C@@H](CCCNC(=N)N)C(=O)N[C@@H](CCCNC(=N)N)C(=O)N[C@@H](CCCNC(=N)N)C(=O)N1CCC[C@H]1C(=O)N[C@@H](CCC(N)=O)C(N)=O [TAT, reference compound]
EC50 [2, 6]: 79 ± 6 µM

Compound: CC[C@H](C)[C@H](NC(=O)[C@H](CCCCN)NC(=O)[C@@H](NC(=O)[C@H](CCC(N)=O)NC(=O)[C@@H](N)CCCNC(=N)N)[C@@H](C)CC)C(=O)N[C@@H](Cc1c[nH]c2ccccc12)C(=O)N[C@@H](Cc1ccccc1)C(=O)N[C@@H](CCC(N)=O)C(=O)N[C@@H](CC(N)=O)C(=O)N[C@@H](CCCNC(=N)N)C(=O)N[C@@H](CCCNC(=N)N)C(=O)N[C@@H](CCSC)C(=O)N[C@@H](CCCCN)C(=O)N[C@@H](Cc1c[nH]c2ccccc12)C(=O)N[C@@H](CCCCN)C(=O)N[C@@H](CCCCN)C(=O)N[C@@H](CSc1ccc([N+](=O)[O-])c2nsnc12)C(N)=O [penetratin-SNBD]
EC50 [2, 5]: 27 ± 3 µM

Compound: N=C(N)NCCC[C@H](NC(=O)CNC(=O)[C@@H](N)Cc1ccc(O)cc1)C(=O)N[C@@H](CCCCN)C(=O)N[C@@H](CCCCN)C(=O)N[C@@H](CCCNC(=N)N)C(=O)N[C@@H](CCCNC(=N)N)C(=O)N[C@@H](CCC(N)=O)C(=O)N[C@@H](CCCNC(=N)N)C(=O)N[C@@H](CCCNC(=N)N)C(=O)N[C@@H](CCCNC(=N)N)C(=O)N1CCC[C@H]1C(=O)N[C@@H](CCC(N)=O)C(=O)N[C@@H](CSc1ccc([N+](=O)[O-])c2nsnc12)C(N)=O [TAT-SNBD]
EC50 [2, 6]: 53 ± 2 µM

Compound: GLRKRLRKFRNKIKEK-NH2 [sC18, reference compound]
EC50 [2, 6]: 70 ± 4 µM
